This passage reports EC50, Kd and IC50 results from patent publication US8618289B2 (Ambit Biosciences Corporation, priority 2008, dated 2013).

In one assay the test system is A375 cells. Briefly: cells. The settings on record: Homo sapiens, A-375, read-out: A375 Viability EC50.
Assay [1] concerns the target RAF kinases (Homo sapiens, UniProt P15056, V600E). In words: biochemical.
Assay [2] deals with MEK1 phosphorylation in the A375 human melanoma cell line. Briefly: cells. The settings on record: A-375, read-out: pMEK IC50.
In assay [3] the target is RAF kinases (Homo sapiens, UniProt P04049). The settings on record: read-out: RAF1 Kd; RAF1.
In assay [4] the target is RAF kinases (Homo sapiens, UniProt P15056). The settings on record: read-out: BRAF WT Kd; BRAF WT.

Broadly, the EC50 is the concentration needed to bring the measured effect to its halfway point. By Kd is commonly meant the free concentration of one partner at which half of the binding sites on the other are occupied at equilibrium, for simple one-to-one binding. By IC50 is commonly meant the point on the concentration scale where inhibition reaches its midpoint.

Chain of RAF kinases (Homo sapiens, UniProt P15056) (P15056 whole entry): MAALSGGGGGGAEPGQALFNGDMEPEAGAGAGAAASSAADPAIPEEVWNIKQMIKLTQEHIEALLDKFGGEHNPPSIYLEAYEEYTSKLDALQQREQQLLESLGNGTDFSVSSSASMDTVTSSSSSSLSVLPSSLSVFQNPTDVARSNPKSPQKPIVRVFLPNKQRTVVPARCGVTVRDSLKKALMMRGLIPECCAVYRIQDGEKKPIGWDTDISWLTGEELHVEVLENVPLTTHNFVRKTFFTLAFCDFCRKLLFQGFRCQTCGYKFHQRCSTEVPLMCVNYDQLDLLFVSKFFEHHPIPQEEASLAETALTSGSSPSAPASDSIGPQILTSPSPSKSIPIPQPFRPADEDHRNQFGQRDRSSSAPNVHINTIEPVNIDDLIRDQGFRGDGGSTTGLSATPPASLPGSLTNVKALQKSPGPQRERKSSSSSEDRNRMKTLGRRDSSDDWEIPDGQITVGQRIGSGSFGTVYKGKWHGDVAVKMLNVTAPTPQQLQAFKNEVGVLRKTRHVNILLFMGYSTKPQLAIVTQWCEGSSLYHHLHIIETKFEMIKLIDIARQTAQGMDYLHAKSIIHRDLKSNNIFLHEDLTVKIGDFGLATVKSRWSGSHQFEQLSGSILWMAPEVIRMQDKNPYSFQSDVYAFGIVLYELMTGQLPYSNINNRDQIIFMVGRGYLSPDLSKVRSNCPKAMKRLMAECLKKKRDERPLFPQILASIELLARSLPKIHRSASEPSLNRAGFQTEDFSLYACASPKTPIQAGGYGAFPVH
Chain of RAF kinases (Homo sapiens, UniProt P04049) (P04049 whole entry): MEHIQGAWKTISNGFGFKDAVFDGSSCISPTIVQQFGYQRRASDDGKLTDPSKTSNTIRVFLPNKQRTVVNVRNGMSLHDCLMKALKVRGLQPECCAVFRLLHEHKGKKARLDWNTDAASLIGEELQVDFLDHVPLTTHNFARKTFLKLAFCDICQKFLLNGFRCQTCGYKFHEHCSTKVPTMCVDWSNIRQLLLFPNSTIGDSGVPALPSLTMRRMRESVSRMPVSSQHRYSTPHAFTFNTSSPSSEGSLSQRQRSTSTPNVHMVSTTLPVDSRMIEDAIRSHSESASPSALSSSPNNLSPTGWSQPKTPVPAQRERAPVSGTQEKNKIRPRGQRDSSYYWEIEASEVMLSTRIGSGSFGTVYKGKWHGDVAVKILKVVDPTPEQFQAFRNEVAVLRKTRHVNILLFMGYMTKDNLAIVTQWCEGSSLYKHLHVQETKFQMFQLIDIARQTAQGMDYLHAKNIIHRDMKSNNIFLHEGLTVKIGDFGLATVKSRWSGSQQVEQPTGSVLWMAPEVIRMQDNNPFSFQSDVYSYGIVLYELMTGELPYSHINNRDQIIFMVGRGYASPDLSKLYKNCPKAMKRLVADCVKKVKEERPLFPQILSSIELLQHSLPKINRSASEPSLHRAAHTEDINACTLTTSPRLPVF
Chain of RAF kinases (Homo sapiens, UniProt P15056, V600E) (P15056 whole entry V600E): as the sequence (P15056 whole entry) above, with V600E counted along it
Protocol for A375 cells: The following day, the medium was replaced with 0.5% FBS in M3 for overnight incubation. […] The cells were incubated with compound or control for 72 hours at 37° C. under 10% CO2. Following incubation, Cell Titer Blue reagent (Promega) was added to each well containing compounds or controls, and then incubated for 3 hours at 37° C. under 10% CO2. Proliferation was measured by fluorescence with excitation at 560 nm and emission at 590 nm using SoftMax Pro.

With `COCCOc1cc2ncnc(Oc3cccc(NC(=O)Nc4cc(C5CCOCC5)no4)c3)c2cc1OC` [Ex 216, 1-(3-(6-methoxy-7-(2-methoxyethoxy)quinazolin-4-yloxy)phenyl)-3-(3-(tetrahydro-2H-pyran-4-yl)isoxazol-5-yl)urea], the EC50 with A375 cells is over 1000 nM. The Kd at RAF kinases [1] is 250 to 500 nM; at RAF kinases [3] it was over 1000 nM; on RAF kinases [4], over 1000 nM. In addition, the half-maximal inhibitory concentration (IC50) in assay [2] was over 1000 nM.

As for `COCCOc1cc2ncnc(Oc3cccc(NC(=O)Nc4cc(C(F)(F)F)n(-c5ccccc5)n4)c3)c2cc1OC` [Ex 225, 1-{3-[6-methoxy-7-(2-methoxyethoxy)quinazolin-4-yloxy]phenyl}-3-[1-phenyl-5-(trifluoromethyl)-1H-pyrazol-3-yl]urea], in the assay on A375 cells, the EC50 was over 1000 nM. Besides, the results for the dissociation constant Kd on RAF kinases [1], on RAF kinases [3] and at RAF kinases [4] were 250 to 500 nM, over 1000 nM and over 1000 nM, respectively. Besides, the IC50 in assay [2] was 500 to 1000 nM.

Take `COCCOc1cc2ncnc(Oc3cccc(NC(=O)Nc4cc(C(F)(F)F)nn4-c4ccc(F)cc4)c3)c2cc1OC` [Ex 226, 1-[1-(4-fluorophenyl)-3-(trifluoromethyl)-1H-pyrazol-5-yl]-3-{3-[6-methoxy-7-(2-methoxyethoxy)quinazolin-4-yloxy]phenyl}urea]: in the assay with A375 cells, the concentration giving a half-maximal response (EC50) was over 1000 nM. Also, the Kd is 500 to 1000 nM at RAF kinases [1], over 1000 nM at RAF kinases [3] and over 1000 nM on RAF kinases [4]. Also, the IC50 in assay [2] was 250 to 500 nM.

On to `COCCOc1cc2ncnc(Oc3cccc(NC(=O)Nc4cc(C(F)(F)F)nn4-c4ccc(C)cc4)c3)c2cc1OC` [Ex 227, 1-{3-[6-methoxy-7-(2-methoxyethoxy)quinazolin-4-yloxy]phenyl}-3-[1-p-tolyl-3-(trifluoromethyl)-1H-pyrazol-5-yl]urea], for which, in the assay with A375 cells, the concentration giving a half-maximal response (EC50) was in the range of 250 to 500 nM. Besides, the dissociation constant Kd on RAF kinases [1] is 500 to 1000 nM; at RAF kinases [3], over 1000 nM; at RAF kinases [4] it was over 1000 nM. Moreover, in assay [2], the IC50 lay in the range of 250 to 500 nM.

In the case of `COCCOc1cc2ncnc(Oc3cccc(NC(=O)Nc4cc(C(C)(CF)CF)nn4-c4ccccc4)c3)c2cc1OC` [Ex 228, 1-[3-(1,3-difluoro-2-methylpropan-2-yl)-1-phenyl-1H-pyrazol-5-yl]-3-{3-[6-methoxy-7-(2-methoxyethoxy)quinazolin-4-yloxy]phenyl}urea], the EC50 with A375 cells was over 1000 nM. Moreover, the Kd is 500 to 1000 nM on RAF kinases [1], over 1000 nM on RAF kinases [3] and over 1000 nM on RAF kinases [4]. In addition, the IC50 in assay [2] is under 250 nM.

For `COCCOc1cc2ncnc(Sc3cccc(NC(=O)Nc4ccc(C(F)(F)F)c(F)c4)c3)c2cc1OC` [Ex 231, 1-(3-fluoro-4-(trifluoromethyl)phenyl)-3-(3-(6-methoxy-7-(2-methoxyethoxy)quinazolin-4-ylthio)phenyl)urea], in the assay with A375 cells, the EC50 is over 1000 nM. Moreover, the equilibrium dissociation constant (Kd) at RAF kinases [1] is 500 to 1000 nM; at RAF kinases [3] it was over 1000 nM; on RAF kinases [4] it was over 1000 nM. Further, the IC50 in assay [2] is over 1000 nM.

With `COc1cc2ncnc(Sc3cccc(NC(=O)Nc4cc(C(C)(C)C)nn4-c4cccc(C(F)(F)F)c4)c3)c2cc1OC` [Ex 380, 1-(3-tert-butyl-1-(3-(trifluoromethyl)phenyl)-1H-pyrazol-5-yl)-3-(3-(6,7-dimethoxyquinazolin-4-ylthio)phenyl) urea], the figures for the Kd on RAF kinases [1], at RAF kinases [3] and at RAF kinases [4] were 250 to 500 nM, over 1000 nM and over 1000 nM, respectively. Moreover, the IC50 in assay [2] is under 250 nM.

Turning to `COc1cc2ncnc(Sc3cccc(NC(=O)Nc4cc(C5(C(F)(F)F)CC5)nn4-c4ccccc4)c3)c2cc1OC` [Ex 383, 1-(3-(6,7-dimethoxyquinazolin-4-ylthio)phenyl)-3-(1-phenyl-3-(1-(trifluoromethyl)cyclopropyl)-1H-pyrazol-5-yl)urea], the Kd on RAF kinases [1] was 250 to 500 nM; at RAF kinases [3] it was over 1000 nM; at RAF kinases [4], over 1000 nM. Also, the IC50 in assay [2] is under 250 nM.
